How the values were obtained:
[1] = wn = mass fraction of the nth substance listed; conditions: 101.33 kPa, Liquid; for speed of sound: Pulse-echo method; for mass density: Vibrating tube method
[2] = 298.15 K; 101.33 kPa; Liquid; Vibrating tube method

CCN1CCCC1=O [1-ethyl-2-pyrrolidinone] + NCCO
[1]
Conditions | mass density, w2 = 0.7 [kg/m3] | mass density, w2 = 0.8 [kg/m3] | mass density, w2 = 0.9 [kg/m3] | speed of sound, w2 = 0.7 [m/s] | speed of sound, w2 = 0.8 [m/s] | speed of sound, w2 = 0.9 [m/s] | viscosity, w2 = 0.7 [mPa·s] | viscosity, w2 = 0.8 [mPa·s] | viscosity, w2 = 0.9 [mPa·s]
293.15 K | 1009.04 | 1011.7 | 1014.01 | 1653.3 | 1679.7 | 1706.9 | 12.25 | 16.01 | 19.95
303.15 K | 1000.7 | 1003.49 | 1005.95 | 1618.6 | 1645.9 | 1674 | 8.104 | 10.27 | 12.48
313.15 K | 992.31 | 995.23 | 997.83 | 1584 | 1611.7 | 1641.2 | 5.666 | 6.967 | 8.35
323.15 K | 983.87 | 986.93 | 989.65 | 1549.5 | 1578.2 | 1608 | 4.173 | 5.017 | 5.863

CCN1CCCC1=O [1-ethyl-2-pyrrolidinone] + O
[1]
Conditions | mass density, w2 = 0.7 [kg/m3] | mass density, w2 = 0.8 [kg/m3] | mass density, w2 = 0.9 [kg/m3] | speed of sound, w2 = 0.7 [m/s] | speed of sound, w2 = 0.8 [m/s] | speed of sound, w2 = 0.9 [m/s] | viscosity, w2 = 0.7 [mPa·s] | viscosity, w2 = 0.8 [mPa·s] | viscosity, w2 = 0.9 [mPa·s]
293.15 K | 1013.82 | 1007.67 | 1002.08 | 1671.7 | 1620 | 1555.7 | 2.857 | 2.068 | 1.474
303.15 K | 1008.12 | 1003.22 | 998.33 | 1658.9 | 1620 | 1568.9 | 2.03 | 1.52 | 1.123
313.15 K | 1001.9 | 998.11 | 994.6 | 1644 | 1616.3 | 1576.8 | 1.522 | 1.176 | 0.891
323.15 K | 995.12 | 992.41 | 989.74 | 1627.1 | 1608.9 | 1580.3 | 1.196 | 0.942 | 0.73

NCCO [2-aminoethan-1-ol]
Conditions | mass density [kg/m3]
[2] | 1011.98

Source: the NIST ThermoML archive (doi:10.1021/je4005883)
